# Measurements reported in patent publication US11111251B2, “Positive allosteric modulators of the muscarinic acetylcholine receptor M1” (Vanderbilt University, priority 2016, dated 2021).
# Molecular target: T1, human mAChR M1 (Homo sapiens, UniProt P11229)
# T1 sequence (P11229 1-460): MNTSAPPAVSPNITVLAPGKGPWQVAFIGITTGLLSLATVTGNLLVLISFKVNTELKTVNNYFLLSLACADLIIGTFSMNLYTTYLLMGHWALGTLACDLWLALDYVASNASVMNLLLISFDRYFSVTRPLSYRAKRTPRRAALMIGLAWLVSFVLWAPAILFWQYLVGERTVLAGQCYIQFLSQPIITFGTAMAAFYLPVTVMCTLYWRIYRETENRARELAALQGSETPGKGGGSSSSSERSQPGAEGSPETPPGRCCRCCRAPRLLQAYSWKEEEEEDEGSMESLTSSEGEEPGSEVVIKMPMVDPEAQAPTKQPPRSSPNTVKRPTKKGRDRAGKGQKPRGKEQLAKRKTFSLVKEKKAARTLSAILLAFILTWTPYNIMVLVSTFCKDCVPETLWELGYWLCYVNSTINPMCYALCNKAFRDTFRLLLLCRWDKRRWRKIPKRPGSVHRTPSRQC
# Assay: mAChR M1 cell-based functional assay: calcium mobilization, positive allosteric modulator mode (increase in EC20 acetylcholine response)
# Details: Table 2, human M1; for EC50: read-out: Human M1 EC50; for Emax: read-out: Human M1 Emax (%)
# Outline: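 PAM potency reflects the concentration-dependent increase in calcium response to an EC20 acetylcholine challenge, given 144 s into a 300 s read after compound addition at 4 s (EC80 follows at 230 s). Cells were hM1-expressing CHO-K1, loaded 50 min with Fluo-4 AM. Curves used 11 points at 1:3 dilutions and four-parameter logistic fitting.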
SMILES,EC50,Emax
"Cc1ncc(Cc2cc(C(=O)NC3C4CC5CC3CC(O)(C5)C4)nc3ccsc23)s1 [Compound 142, N-(1S)-5-hydroxy-2-adamantyl]-7-[(2-methylthiazol-5-yl)methyl]thieno[3,2-b]pyridine-5-carboxamide]",4950 nM,23.9%
"Cc1ncc(Cc2cc(C(=O)NC3CCCNC3=O)nc3ccsc23)s1 (stereo not shown) [Compound 143, 7-[(2-methylthiazol-5-yl)methyl]-N-(2-oxo-3-piperidyl)thieno[3,2-b]pyridine-5-carboxamide]",> 10000 nM,50.5%
"Cc1ccc(C(=O)c2cc(C(=O)N[C@@H]3CCCC[C@H]3O)nc3ccsc23)cn1 [Compound 145, N-[(1R,2R)-2-hydroxycyclohexyl]-7-(6-methylpyridine-3-carbonyl)thieno[3,2-b]pyridine-5-carboxamide]",> 10000 nM,41.6%
"Cc1nc(-c2ccc(Cc3cc(C(=O)N[C@H]4CC[C@@H]4O)nc4ccsc34)cc2)co1 [Compound 146, N-[(1S,2S)-2-hydroxycyclobutyl]-7-[[4-(2-methyloxazol-4-yl)phenyl]methyl]thieno[3,2-b]pyridine-5-carboxamide]",336 nM,90.7%
"Cn1cc(-c2ccc(Cc3cc(C(=O)N[C@@H]4CCC[C@H]4O)nc4ccsc34)cc2)nn1 [Compound 149, N-[(1R,2R)-2-hydroxycyclopentyl]-7-[[4-(1-methyltriazol-4-yl)phenyl]methyl]thieno[3,2-b]pyridine-5-carboxamide]",9.84 nM,85%
"Cn1cc(-c2ccc(Cc3cc(C(=O)N[C@@H]4CCOC[C@H]4O)nc4ccsc34)cc2)nn1 [Compound 153, N-[(3S,4R)-3-hydroxytetrahydropyran-4-yl]-7-[[4-(1-methyltriazol-4-yl)phenyl]methyl]thieno[3,2-b]pyridine-5-carboxamide]",4.74 nM,59.8%
"Cn1cc(-c2ccc(Cc3cc(C(=O)N[C@@H]4CCCC[C@H]4O)nc4ccsc34)cc2)nn1 [Compound 155, N-[(1R,2R)-2-hydroxycyclohexyl]-7-[[4-(1-methyltriazol-4-yl)phenyl]methyl]thieno[3,2-b]pyridine-5-carboxamide]",12.7 nM,68.7%
"CO[C@@H]1CCCC[C@H]1NC(=O)c1cc(Cc2ccc(-c3cn(C)nn3)cc2)c2sccc2n1 [Compound 156, N-[(1R,2R)-2-methoxycyclohexyl]-7-[[4-(1-methyltriazol-4-yl)phenyl]methyl]thieno[3,2-b]pyridine-5-carboxamide]",260 nM,89.2%
"Cn1cc(-c2ccc(Cc3cc(C(=O)N[C@@H]4CCCCC[C@H]4O)nc4ccsc34)cc2)nn1 [Compound 157, N-[(1R,2R)-2-hydroxycycloheptyl]-7-[[4-(1-methyltriazol-4-yl)phenyl]methyl]thieno[3,2-b]pyridine-5-carboxamide]",24.2 nM,70%
"Cc1nc(-c2ccc(Cc3cc(C(=O)NC4CC5(COC5)C4)nc4ccsc34)cc2)co1 [Compound 158, 7-[[4-(2-methyloxazol-4-yl)phenyl]methyl]-N-(2-oxaspiro[3.3]heptan-6-yl)thieno[3,2-b]pyridine-5-carboxamide]",343 nM,89.7%
"Cc1nc(-c2ccc(Cc3cc(C(=O)N[C@H]4CCOC4)nc4ccsc34)cc2)co1 [Compound 161, 7-[[4-(2-methyloxazol-4-yl)phenyl]methyl]-N-[(3S)-tetrahydrofuran-3-yl]thieno[3,2-b]pyridine-5-carboxamide]",3510 nM,78.8%
"Cc1nc(-c2ccc(Cc3cc(C(=O)NC4CCCCC4)nc4ccsc34)cc2)co1 [Compound 162, N-cyclohexyl-7-[[4-(2-methyloxazol-4-yl)phenyl]methyl]thieno[3,2-b]pyridine-5-carboxamide]",5040 nM,74%
"Cc1nc(-c2ccc(Cc3cc(C(=O)NC4CCN(C)CC4)nc4ccsc34)cc2)co1 [Compound 164, 7-[[4-(2-methyloxazol-4-yl)phenyl]methyl]-N-(1-methyl-4-piperidyl)thieno[3,2-b]pyridine-5-carboxamide]",2550 nM,74.6%
"Cc1nc(-c2ccc(Cc3cc(C(=O)N[C@@H]4CCCC[C@H]4O)nc4ccsc34)cc2)co1 [Compound 168, N-[(1R,2R)-2-hydroxycyclohexyl]-7-[[4-(2-methyloxazol-4-yl)phenyl]methyl]thieno[3,2-b]pyridine-5-carboxamide]",84.2 nM,82.6%
"CO[C@@H]1CCCC[C@H]1NC(=O)c1cc(Cc2ccc(-c3coc(C)n3)cc2)c2sccc2n1 [Compound 169, N-[(1R,2R)-2-methoxycyclohexyl]-7-[[4-(2-methyloxazol-4-yl)phenyl]methyl]thieno[3,2-b]pyridine-5-carboxamide]",1360 nM,84.1%

# Second part, the compound after the results:
EC50,Emax,SMILES
> 10000 nM,36.9%,"Cc1ncc(Cc2cc(C(=O)NC34CC5CC(CC(O)(C5)C3)C4)nc3ccsc23)s1 [Compound 141, N-(3-hydroxy-1-adamantyl)-7-[(2-methylthiazol-5-yl]methyl]thieno[3,2-b]pyridine-5-carboxamide]"
> 10000 nM,50.7%,"Cc1ncc(Cc2cc(C(=O)NC3CCCCNC3=O)nc3ccsc23)s1 (stereo not shown) [Compound 144, 7-[(2-methylthiazol-5-yl)methyl]-N-(2-oxoazepan-3-yl)thieno[3,2-b]pyridine-5-carboxamide]"
> 10000 nM,34%,"Cc1nc(-c2ccc(Cc3cc(C(=O)NC4COC4)nc4ccsc34)cc2)co1 [Compound 147, 7-[[4-(2-methyloxazol-4-yl)phenyl]methyl]-N-(oxetan-3-yl)thieno[3,2-b]pyridine-5-carboxamide]"
33.1 nM,85.5%,"Cn1cc(-c2ccc(Cc3cc(C(=O)N[C@H]4CC[C@@H]4O)nc4ccsc34)cc2)nn1 [Compound 148, N-[(1S,2S)-2-hydroxycyclobutyl]-7-[[4-(1-methyltriazol-4-yl)phenyl]methyl]thieno[3,2-b]pyridine-5-carboxamide]"
722 nM,88.5%,"Cn1cc(-c2ccc(Cc3cc(C(=O)N[C@@H]4CCOC4)nc4ccsc34)cc2)nn1 [Compound 150, 7-[[4-(1-methyltriazol-4-yl)phenyl]methyl]-N-[(3R)-tetrahydrofuran-3-yl]thieno[3,2-b]pyridine-5-carboxamide]"
595 nM,88.4%,"Cn1cc(-c2ccc(Cc3cc(C(=O)N[C@H]4CCOC4)nc4ccsc34)cc2)nn1 [Compound 151, 7-[[4-(1-methyltriazol-4-yl)phenyl]methyl]-N-[(3S)-tetrahydrofuran-3-yl]thieno[3,2-b]pyridine-5-carboxamide]"
272 nM,92.3%,"Cn1cc(-c2ccc(Cc3cc(C(=O)NC4CCCOC4)nc4ccsc34)cc2)nn1 (stereo not shown) [Compound 152, 7-[[4-(1-methyltriazol-4-yl)phenyl]methyl]-N-tetrahydropyran-3-yl-thieno[3,2-b]pyridine-5-carboxamide]"
6.2 nM,83.9%,"Cn1cc(-c2ccc(Cc3cc(C(=O)N[C@@H]4COCC[C@H]4O)nc4ccsc34)cc2)nn1 [Compound 154, N-[(3R,4R)-4-hydroxytetrahydropyran-3-yl]-7-[[4-(1-methyltriazol-4-yl)phenyl]methyl]thieno[3,2-b]pyridine-5-carboxamide]"
141 nM,80.5%,"Cc1nc(-c2ccc(Cc3cc(C(=O)N[C@@H]4CCC[C@H]4O)nc4ccsc34)cc2)co1 [Compound 159, N-[(1R,2R)-2-hydroxycyclopentyl]-7-[[4-(2-methyloxazol-4-yl)phenyl]methyl]thieno[3,2-b]pyridine-5-carboxamide]"
3930 nM,77.5%,"Cc1nc(-c2ccc(Cc3cc(C(=O)N[C@@H]4CCOC4)nc4ccsc34)cc2)co1 [Compound 160, 7-[[4-(2-methyloxazol-4-yl)phenyl]methyl]-N-[(3R)-tetrahydrofuran-3-yl]thieno[3,2-b]pyridine-5-carboxamide]"
2530 nM,75.4%,"Cc1nc(-c2ccc(Cc3cc(C(=O)NC4CCCN(C)C4)nc4ccsc34)cc2)co1 (stereo not shown) [Compound 163, 7-[[4-(2-methyloxazol-4-yl)phenyl]methyl]-N-(1-methyl-3-piperidyl)thieno[3,2-b]pyridine-5-carboxamide]"
> 10000 nM,70.8%,"Cc1nc(-c2ccc(Cc3cc(C(=O)N(C)C4CCOCC4)nc4ccsc34)cc2)co1 [Compound 165, N-methyl-7-[[4-(2-methyloxazol-4-yl)phenyl]methyl]-N-tetrahydropyran-4-yl-thieno[3,2-b]pyridine-5-carboxamide]"
16.8 nM,81.6%,"Cc1nc(-c2ccc(Cc3cc(C(=O)N[C@@H]4CCOC[C@H]4O)nc4ccsc34)cc2)co1 [Compound 166, N-[(3S,4R)-3-hydroxytetrahydropyran-4-yl]-7-[[4-(2-methyloxazol-4-yl)phenyl]methyl]thieno[3,2-b]pyridine-5-carboxamide]"
25.3 nM,90.4%,"Cc1nc(-c2ccc(Cc3cc(C(=O)N[C@@H]4COCC[C@H]4O)nc4ccsc34)cc2)co1 [Compound 167, N-[(3R,4R)-4-hydroxytetrahydropyran-3-yl]-7-[[4-(2-methyloxazol-4-yl)phenyl]methyl]thieno[3,2-b]pyridine-5-carboxamide]"
